Reference: ChEMBL document CHEMBL5608163, “Structure modification of anoplin for fighting resistant bacteria” (Eur J Med Chem, 2024)
≈ marks a conversion by molar mass, not a printed value. Blank lines part the entries; values can stand above or below the molecule they belong to. Bridge positions count the residues as written; N and C are the ends. Square brackets hold non-standard residues; d marks the D form. Peptide text beside a SMILES is read from it. S5 = C=CCCC[C@](C)(N)C(=O)O

Key:
[1] = system: Enterococcus faecium; assay: Antibacterial activity against Enterococcus faecium; format: functional
[2] = system: Pseudomonas aeruginosa; assay: Antibacterial activity against Pseudomonas aeruginosa ATCC 15442 assessed as reduction in bacterial cell growth incubated for 18 hrs by two fold serial microdilution method; format: functional
[3] = Hemolytic activity in human RBC assessed as hemolysis; format: toxicity, cell-based, Erythrocyte; conditions: red blood cells
[4] = system: Acinetobacter baumannii; assay: Antibacterial activity against multi-drug resistant Acinetobacter baumannii clinical isolate 9840 assessed as reduction in bacterial growth measured after 18 to 24 hrs by CLSI protocol-based Mueller-Hinton broth dilution method; format: functional; conditions: time 18-24 hrs
[5] = system: Bacillus subtilis; assay: Antibacterial activity against Bacillus subtilis ATCC 23857 assessed as reduction in bacterial growth measured after 18 to 24 hrs by CLSI protocol-based Mueller-Hinton broth dilution method; format: functional; conditions: time 18-24 hrs
[6] = system: Staphylococcus aureus; assay: Antibacterial activity against Staphylococcus aureus ATCC 25923 assessed as reduction in bacterial growth measured after 18 to 24 hrs by CLSI protocol-based Mueller-Hinton broth dilution method; format: functional; conditions: time 18-24 hrs
[7] = system: Escherichia coli; assay: Antibacterial activity against multi-drug resistant Escherichia coli clinical isolate 850 assessed as reduction in bacterial growth measured after 18 to 24 hrs by CLSI protocol-based Mueller-Hinton broth dilution method; format: functional; conditions: time 18-24 hrs
[8] = system: Pseudomonas aeruginosa; assay: Antibacterial activity against multi-drug resistant Pseudomonas aeruginosa clinical isolate 119 assessed as reduction in bacterial growth measured after 18 to 24 hrs by CLSI protocol-based Mueller-Hinton broth dilution method; format: functional; conditions: time 18-24 hrs
[9] = system: Staphylococcus aureus; assay: Antibacterial activity against Staphylococcus aureus ATCC 25923 assessed as bacterial growth inhibition measured for 18 hrs by CLSI-protocol based Mueller-Hinton Broth micro-dilution assay; format: functional
[10] = system: Staphylococcus aureus; assay: Antibacterial activity against Methicillin-resistant Staphylococcus aureus 936 assessed as bacterial growth inhibition measured for 18 hrs by CLSI-protocol based Mueller-Hinton Broth micro-dilution assay; format: functional
[11] = system: Klebsiella pneumoniae; assay: Antibacterial activity against Klebsiella pneumoniae ATCC 700603 assessed as reduction in bacterial growth measured after 18 to 24 hrs by CLSI protocol-based Mueller-Hinton broth dilution method; format: functional; conditions: time 18-24 hrs
[12] = system: Enterococcus faecium; assay: Antimicrobial activity against Enterococcus faecium assessed as reduction in microbial growth incubated for 18 to 20 hrs by Mueller-Hinton broth based microdilution method; format: functional; conditions: time 18-20 hrs
[13] = system: Bacillus subtilis; assay: Antimicrobial activity against Bacillus subtilis ATCC 23857 assessed as reduction in microbial growth incubated for 18 to 20 hrs by Mueller-Hinton broth based microdilution method; format: functional; conditions: time 18-20 hrs
[14] = Hemolytic activity in human RBC; format: toxicity, cell-based, Erythrocyte; conditions: red blood cells
[15] = system: Escherichia coli; assay: Antibacterial activity against Escherichia coli ATCC 25922 assessed as bacterial growth inhibition incubate for 18 to 20 hrs by MH broth based assay; format: functional; conditions: time 18-20 hrs
[16] = Hemolytic activity in mouse RBC incubated for 1 hr; format: toxicity, cell-based, Erythrocyte; conditions: red blood cells
[17] = system: Staphylococcus aureus; assay: Antimicrobial activity against Staphylococcus aureus ATCC 25923 assessed as reduction in microbial growth incubated for 18 to 20 hrs by Mueller-Hinton broth based microdilution method; format: functional; conditions: time 18-20 hrs
[18] = system: Staphylococcus aureus; assay: Antibacterial activity against Staphylococcus aureus ATCC 29213 assessed as bacterial growth inhibition measured after 18 hrs by CLSI protocol based two-fold serial microdilution method; format: functional
[19] = system: Pseudomonas aeruginosa; assay: Antibacterial activity against Pseudomonas aeruginosa assessed as reduction in bacterial growth by broth microdilution method; format: functional
[20] = system: Staphylococcus aureus; assay: Antibacterial activity against Staphylococcus aureus; format: functional
[21] = system: Enterococcus faecium; assay: Antibacterial activity against Enterococcus faecium ATCC 27270; format: functional
[22] = system: Escherichia coli; assay: Antibacterial activity against Escherichia coli ATCC 25922 assessed as reduction in bacterial growth; format: functional
[23] = system: Escherichia coli; assay: Antibacterial activity against Escherichia coli; format: functional
[24] = system: Staphylococcus aureus; assay: Antibacterial activity against Staphylococcus aureus ATCC 29213 assessed as bacterial growth inhibition measured for 18 hrs by CLSI-protocol based Mueller-Hinton Broth micro-dilution assay; format: functional
[25] = system: Escherichia coli; assay: Antibacterial activity against Escherichia coli K12 assessed as bacterial growth inhibition measured for 18 hrs by CLSI-protocol based Mueller-Hinton Broth micro-dilution assay; format: functional
[26] = system: Pseudomonas aeruginosa; assay: Antibacterial activity against Pseudomonas aeruginosa ATCC 27853 assessed as bacterial growth inhibition measured for 18 hrs by CLSI-protocol based Mueller-Hinton Broth micro-dilution assay; format: functional
[27] = system: Escherichia coli; assay: Antibacterial activity against Escherichia coli MG1655 assessed as bacterial growth inhibition measured for 18 hrs by CLSI-protocol based Mueller-Hinton Broth micro-dilution assay; format: functional
[28] = system: Pseudomonas aeruginosa; assay: Antibacterial activity against Pseudomonas aeruginosa PAO1 assessed as bacterial growth inhibition measured for 18 hrs by CLSI-protocol based Mueller-Hinton Broth micro-dilution assay; format: functional
[29] = system: Bacillus subtilis; assay: Antibacterial activity against Bacillus subtilis 168 assessed as bacterial growth inhibition measured for 18 hrs by CLSI-protocol based Mueller-Hinton Broth micro-dilution assay; format: functional
[30] = system: Erythrocyte; assay: Hemolytic activity in sheep RBC incubated for 30 mins; format: toxicity, cell-based, Ovis aries; conditions: 0.5 h
[31] = system: Staphylococcus aureus; assay: Antibacterial activity against methicillin-resistant Staphylococcus aureus ATCC BAA1720 assessed as bacterial growth inhibition measured for 18 hrs by CLSI-protocol based Mueller-Hinton Broth micro-dilution assay; format: functional
[32] = system: Salmonella typhimurium; assay: Antibacterial activity against Salmonella enterica subsp. enterica serovar Typhimurium LT2 assessed as bacterial growth inhibition measured for 18 hrs by CLSI-protocol based Mueller-Hinton Broth micro-dilution assay; format: functional

Compound: CC[C@H](C)[C@H](NC(=O)[C@H](CCCNC(=N)N)NC(=O)[C@@H](CCCCN)NC(=O)[C@H](CC(C)C)NC(=O)[C@H](CC(C)C)NC(=O)CNC(=O)[C@H](CCCCn1cc(CC(NC(=O)[C@H](CC(C)C)NC(=O)[C@H](CC(C)C)NC(=O)[C@@H](NC(=O)[C@@H](CCCCN)NC(=O)[C@@H](NC(=O)[C@H](CCCNC(=N)N)NC(=O)[C@@H](CCCCN)NC(=O)[C@H](CC(C)C)NC(=O)[C@H](CC(C)C)NC(=O)CNC(C)=O)[C@@H](C)CC)[C@@H](C)O)C(N)=O)nn1)NC(C)=O)C(=O)N[C@H](CCCCN)C(=O)N[C@H](C(=O)N[C@@H](CC(C)C)C(=O)N[C@@H](CC(C)C)C(N)=O)[C@@H](C)O (stereo partly drawn)
MIC [4]: 4 µM (≈ 10.6 µg/mL)
MIC [5]: 2 µM (≈ 5.28 µg/mL)
MIC [6]: 128 µM (≈ 338 µg/mL)
MIC [7]: 32 µM (≈ 84.5 µg/mL)
MIC [8]: 16 µM (≈ 42.2 µg/mL)
MIC [9]: 64 µM (≈ 169 µg/mL)
MIC [10]: 64 µM (≈ 169 µg/mL)
MIC [11]: 32 µM (≈ 84.5 µg/mL)

Compound: CC[C@H](C)[C@@H]1NC(=O)[C@@](C)(NC(=O)[C@H](CCCCN)NC(=O)[C@H](CC(C)C)NC(=O)[C@H](CC(C)C)NC(=O)CN)CCC/C=C\CCC[C@@](C)(C(=O)N[C@@H](CC(C)C)C(N)=O)NC(=O)[C@H]([C@@H](C)O)NC(=O)[C@H](CCCCN)NC1=O (H-GLLK[S5]IKT[S5]L-NH2; staple (Z) 5-9)
MIC [24]: 4 µM (≈ 4.54 µg/mL)
MIC [25]: 8 µM (≈ 9.08 µg/mL)
MIC [26]: 32 µM (≈ 36.3 µg/mL)
MIC [27]: 32 µM (≈ 36.3 µg/mL)
MIC [28]: 16 µM (≈ 18.2 µg/mL)
MIC [29]: 4 µM (≈ 4.54 µg/mL)
HC10 [30]: 8 µM
MIC [31]: 4 µM (≈ 4.54 µg/mL)
MIC [32]: 32 µM (≈ 36.3 µg/mL)

Continued, in another order:

MIC [1]: 171 µM (≈ 192 µg/mL)
MIC [2]: 56.8 µM (≈ 63.9 µg/mL)
Compound: CC[C@H](C)[C@H](NC(=O)[C@H](CCCCN)NC(=O)[C@H](CCCCN)NC(=O)[C@H](CC(C)C)NC(=O)[C@H](CC(C)C)NC(=O)CN)C(=O)N[C@@H](CCCCN)C(=O)N[C@H](C(=O)N[C@@H](CC(C)C)C(=O)N[C@@H](CC(C)C)C(N)=O)[C@@H](C)O
HC50 [3]: 269 µM

MIC [12]: 16 µM
MIC [13]: 16 µM
MIC [15]: 64 µM (≈ 88.5 µg/mL)
MIC [17]: 32 µM
Compound: CC(C)C[C@H](NC(=O)[C@H](CC(C)C)NC(=O)[C@H](CCCCN)NC(=O)[C@H](CCCCN)NC(=O)[C@H](Cc1c[nH]c2ccccc12)NC(=O)[C@H](CCCNC(=N)N)NC(=O)[C@H](CCCCN)NC(=O)[C@H](CC(C)C)NC(=O)[C@H](CC(C)C)NC(=O)[C@@H](N)Cc1c[nH]c2ccccc12)C(N)=O
HC50 [14]: > 200 µM
HC50 at 1 h [16]: > 200 µM

MIC [18]: 62.2 µM (≈ 73.6 µg/mL)
MIC [19]: 28.4 µM (≈ 33.6 µg/mL)
MIC [20]: 19.6 µM (≈ 23.2 µg/mL)
MIC [21]: 9.5 µM (≈ 11.2 µg/mL)
MIC [22]: 62.2 µM (≈ 73.6 µg/mL)
MIC [23]: 14.2 µM (≈ 16.8 µg/mL)
Compound: CC[C@H](C)[C@H](NC(=O)[C@H](Cc1c[nH]c2ccccc12)NC(=O)[C@H](CCCCN)NC(=O)[C@H](CC(C)C)NC(=O)[C@H](CC(C)C)NC(=O)CN)C(=O)N[C@@H](CCCCN)C(=O)N[C@H](C(=O)N[C@@H](CC(C)C)C(=O)N[C@@H](CC(C)C)C(N)=O)[C@@H](C)O (H-GLLKWIKTLL-NH2)
HC50 [3]: 14 µM
